We go through 16 compounds from PubChem BioAssay (NCI).

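1) Cells in 96-well plates. 2) Compound, 48 h, 5 concentrations. 3) Linear interpolation between surrounding doses. 4) Unreached endpoint = highest concentration. GI50: concentration for 50% inhibition of growth. The concentration for full growth arrest is given as TGI.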

Some test systems named below: HL-60(TB) leukemia; HOP-62 NSCLC; HCC-2998 colon; RPMI-8226 leukemia; OVCAR-4 ovarian; HCT-15 colon; U251 CNS; 786-0 renal; MALME-3M melanoma; NCI-H226 lung.
What all share (experiment): NCI anticancer screen, dose series, 48 h

For the compound `CS(=O)(=O)Nc1ccc(Nc2c3ccccc3nc3ccccc23)cc1`, the TGI came to 9.19 µM with HL-60(TB) leukemia; 13 µM in the assay with HOP-62 NSCLC; 27 µM in the assay with HCC-2998 colon; 31 µM in the assay on RPMI-8226 leukemia; 17.4 µM with OVCAR-4 ovarian; 23.5 µM in the assay with HCT-15 colon. For the same compound, the TGI in the assay on U251 CNS came to 13.8 µM; in the assay with 786-0 renal, 17.8 µM; in the assay with MALME-3M melanoma it was 12.2 µM; in the assay on NCI-H226 lung it was 7.14 µM.

In the case of `O=C(NC1=NC2C=CC([N+](=O)[O-])=CC2S1)C(=O)Nn1c(=S)[nH]c2ccccc2c1=O` (centres undefined), the TGI in the assay on HL-60(TB) leukemia, in the assay on HOP-62 NSCLC, in the assay with HCC-2998 colon, with RPMI-8226 leukemia, with OVCAR-4 ovarian and with HCT-15 colon was over 100 µM in each case. Besides, the TGI in the assay with U251 CNS, in the assay with 786-0 renal, in the assay on MALME-3M melanoma and with NCI-H226 lung was over 100 µM throughout.

In the case of `O=C1C(=O)C(Br)(Br)C(Br)=C1Br`, the TGI is 38.2 µM in the assay on HL-60(TB) leukemia; over 100 µM with HOP-62 NSCLC; 62 µM in the assay on HCC-2998 colon; 99.5 µM in the assay with RPMI-8226 leukemia; 69.6 µM in the assay with OVCAR-4 ovarian; 41.9 µM in the assay on HCT-15 colon. The values for the TGI with U251 CNS, in the assay with 786-0 renal and in the assay on MALME-3M melanoma were 79.8 µM, 32.1 µM and 35.4 µM, respectively.

Regarding `CCOC(=O)c1c(C(F)(F)F)n([O-])c2ccc(OC)cc2[n+]1=O`, the GI50 was 3010 nM with HL-60(TB) leukemia; 3890 nM in the assay on HOP-62 NSCLC; 4.77 µM with HCC-2998 colon; 3.49 µM in the assay on RPMI-8226 leukemia; 5.39 µM with OVCAR-4 ovarian; 3880 nM in the assay on HCT-15 colon. The GI50 is 4310 nM in the assay with U251 CNS, 6.39 µM with 786-0 renal, 2830 nM in the assay on MALME-3M melanoma and 4.07 µM with NCI-H226 lung. For the same compound, the TGI in the assay on HL-60(TB) leukemia was 9.63 µM; with HOP-62 NSCLC, 21.9 µM; with HCC-2998 colon, 35.1 µM; with RPMI-8226 leukemia, 33.7 µM; in the assay on OVCAR-4 ovarian, over 100 µM; with HCT-15 colon, over 100 µM. In addition, the TGI was over 100 µM in the assay on U251 CNS, 49.5 µM with 786-0 renal, 30.9 µM in the assay on MALME-3M melanoma and 36 µM in the assay on NCI-H226 lung.

As to `C[C@@]12CCC(=O)C=C1CC[C@H]1C2=CC[C@]2(C)C1CC[C@@]2(C)O` (some centres undefined), the TGI is 77.9 µM in the assay on HL-60(TB) leukemia; over 100 µM with HOP-62 NSCLC; over 100 µM in the assay on HCC-2998 colon; over 100 µM with RPMI-8226 leukemia; over 100 µM in the assay on OVCAR-4 ovarian; over 100 µM with HCT-15 colon. Also, the TGI with U251 CNS, in the assay with 786-0 renal, with MALME-3M melanoma and in the assay with NCI-H226 lung was over 100 µM each time.

In the case of `N#Cc1ccnc(N2C(=O)CC[C@H]2C(=O)N(c2cncc(F)c2)[C@H](C(=O)NC2CC(F)(F)C2)c2ccccc2Cl)c1`, the GI50 is over 100000 nM with HL-60(TB) leukemia; over 100000 nM in the assay on HOP-62 NSCLC; over 100 µM with HCC-2998 colon; 97.3 µM in the assay on RPMI-8226 leukemia; 39.1 µM in the assay on OVCAR-4 ovarian; 88600 nM in the assay with HCT-15 colon. Moreover, the GI50 was over 100000 nM in the assay on U251 CNS, over 100 µM in the assay on 786-0 renal, over 100000 nM with MALME-3M melanoma and over 100 µM with NCI-H226 lung. Besides, the TGI in the assay on HL-60(TB) leukemia, in the assay with HOP-62 NSCLC, with HCC-2998 colon, in the assay on RPMI-8226 leukemia, in the assay with OVCAR-4 ovarian and in the assay on HCT-15 colon was over 100 µM each time. The TGI in the assay with U251 CNS, in the assay on 786-0 renal, in the assay with MALME-3M melanoma and with NCI-H226 lung was over 100 µM throughout.

Take `CC1=C(C(=O)Nc2ccc(Cl)c(Cl)c2)C(c2ccco2)C(C(=O)Nc2ccc(Cl)c(Cl)c2)=C(C)N1`: the TGI in the assay on HL-60(TB) leukemia was 42.4 µM; in the assay with HOP-62 NSCLC, 27.6 µM; with HCC-2998 colon, 23.9 µM; in the assay on RPMI-8226 leukemia, 38.4 µM; in the assay on OVCAR-4 ovarian, 24.6 µM; with HCT-15 colon, 24.3 µM. Besides, the TGI in the assay with U251 CNS is 23.9 µM; in the assay on 786-0 renal, 25.8 µM; with MALME-3M melanoma, 29.5 µM; in the assay with NCI-H226 lung it was 25.6 µM.

In the case of `CC1OC(OCC2COC(O)(Oc3c(-c4ccc(O)c(O)c4)oc4cc(O)cc(O)c4c3=O)C(O)C2O)C(O)C(O)C1O` (centres undefined), the TGI with HL-60(TB) leukemia, with HOP-62 NSCLC, with HCC-2998 colon, with RPMI-8226 leukemia, in the assay with OVCAR-4 ovarian and in the assay with HCT-15 colon was over 100 µM in each case. Besides, the TGI with U251 CNS, in the assay with 786-0 renal, in the assay with MALME-3M melanoma and with NCI-H226 lung was over 100 µM throughout.

Regarding `COc1ccc(/C=C/c2n[nH]c3ccc(N4CCOC4=O)cc23)cc1`, the GI50 is 1440 nM with HL-60(TB) leukemia; 2140 nM with HOP-62 NSCLC; 2.3 µM in the assay with HCC-2998 colon; 2.2 µM in the assay on RPMI-8226 leukemia; 5.06 µM in the assay with OVCAR-4 ovarian; 1120 nM with HCT-15 colon. The GI50 in the assay with U251 CNS is 2510 nM; in the assay on 786-0 renal, 3.76 µM; in the assay on MALME-3M melanoma, 4300 nM; in the assay with NCI-H226 lung, 2.44 µM. For the same compound, the TGI in the assay on HL-60(TB) leukemia was 4.04 µM; with HOP-62 NSCLC, 13 µM; in the assay with HCC-2998 colon, 7.17 µM; in the assay with RPMI-8226 leukemia it was 5.55 µM; in the assay on OVCAR-4 ovarian it was over 100 µM; in the assay on HCT-15 colon, 12.5 µM. Also, the TGI is over 100 µM in the assay with U251 CNS, over 100 µM in the assay with 786-0 renal, 8.66 µM in the assay with MALME-3M melanoma and 15.4 µM in the assay with NCI-H226 lung.

As for `O=C(NO)C12C3C4C1C1C2C3C41C(=O)NO` (centres undefined), the TGI in the assay with HL-60(TB) leukemia, in the assay with HOP-62 NSCLC, in the assay with HCC-2998 colon, with RPMI-8226 leukemia, with HCT-15 colon and in the assay with U251 CNS was over 100 µM each time. Besides, the TGI in the assay on 786-0 renal, in the assay on MALME-3M melanoma and with NCI-H226 lung was over 100 µM in each case.

Regarding `COc1cc2nc(Nc3cccc(F)c3)nc(Nc3cc(C)[nH]n3)c2cc1OC`, the GI50 was 1930 nM in the assay with HL-60(TB) leukemia; 1870 nM in the assay on HOP-62 NSCLC; 1.8 µM with HCC-2998 colon; 1.69 µM in the assay with RPMI-8226 leukemia; 1.68 µM in the assay with OVCAR-4 ovarian; 1220 nM with HCT-15 colon. Also, the GI50 with U251 CNS is 1820 nM; with 786-0 renal, 1.75 µM; with MALME-3M melanoma, 1860 nM. The TGI turned out to be 4.46 µM in the assay with HL-60(TB) leukemia; 3.62 µM in the assay with HOP-62 NSCLC; 3.28 µM with HCC-2998 colon; 5.6 µM in the assay on RPMI-8226 leukemia; 3.49 µM in the assay on OVCAR-4 ovarian; 2.72 µM with HCT-15 colon. For the same compound, the TGI with U251 CNS was 3.73 µM; with 786-0 renal, 3.45 µM; in the assay with MALME-3M melanoma it was 3.55 µM.

Consider `N#Cc1cc([N+](=O)[O-])ccc1NC(=O)C(=O)C(C(=O)/C=C/c1ccccc1)C1OC(=O)c2ccccc21` (centres undefined), for which the TGI in the assay on HL-60(TB) leukemia, with HOP-62 NSCLC, in the assay on HCC-2998 colon, with OVCAR-4 ovarian, in the assay with HCT-15 colon and in the assay with U251 CNS was over 100 µM in each case. For the same compound, the TGI in the assay with 786-0 renal, with MALME-3M melanoma and with NCI-H226 lung was over 100 µM each time.

Consider `CC(C)(C)c1ccc(C(O)c2ccc(C(C)(C)C)cc2)cc1`, for which the TGI with HL-60(TB) leukemia was determined as 35.6 µM; in the assay with HOP-62 NSCLC, 30 µM; in the assay with HCC-2998 colon, 35.6 µM; in the assay on OVCAR-4 ovarian, 28.5 µM; in the assay on HCT-15 colon, 24.6 µM; with U251 CNS, 25.8 µM. Further, the TGI in the assay with 786-0 renal amounted to 29 µM; with MALME-3M melanoma, 30.4 µM; in the assay with NCI-H226 lung, 19.5 µM.

With `COc1ccc(C(c2c(O)c3ccccc3n(C)c2=O)c2c(O)c3ccccc3n(C)c2=O)cc1`, the TGI with HL-60(TB) leukemia is 90.7 µM; in the assay with HCC-2998 colon, over 100 µM; in the assay with RPMI-8226 leukemia, over 100 µM; in the assay with OVCAR-4 ovarian, over 100 µM; with U251 CNS it was 44.2 µM; with 786-0 renal it was over 100 µM. The results for the TGI in the assay with MALME-3M melanoma and in the assay on NCI-H226 lung were over 100 µM and 69.5 µM, respectively.

On to `CC(C)(C)C(=O)C1CC(=O)c2ccccc2C1=O` (centres undefined), for which the TGI is 43.6 µM in the assay on HL-60(TB) leukemia; 62.9 µM in the assay on HOP-62 NSCLC; over 100 µM in the assay with HCC-2998 colon; 64.8 µM in the assay with RPMI-8226 leukemia; over 100 µM with OVCAR-4 ovarian; 99.7 µM in the assay on U251 CNS. Further, the values for the TGI with 786-0 renal, in the assay with MALME-3M melanoma and in the assay on NCI-H226 lung were over 100 µM, 31.4 µM and over 100 µM, respectively.

Regarding `Nc1c(C(=O)Nc2ccccc2Cl)sc2nc3c(cc12)CCCCCC3`, the GI50 in the assay with HL-60(TB) leukemia was 2730 nM; in the assay on HCC-2998 colon it was 7.06 µM; with RPMI-8226 leukemia it was over 100 µM; with OVCAR-4 ovarian, 2.11 µM; in the assay with HCT-15 colon it was 1590 nM; with U251 CNS it was 2990 nM. Further, the figures for the GI50 in the assay with 786-0 renal, in the assay on MALME-3M melanoma and in the assay on NCI-H226 lung were 1.75 µM, 2620 nM and 3.76 µM, respectively. The TGI is over 100 µM in the assay on HL-60(TB) leukemia; over 100 µM in the assay on HCC-2998 colon; over 100 µM in the assay on RPMI-8226 leukemia; 5.1 µM in the assay on OVCAR-4 ovarian; over 100 µM in the assay on HCT-15 colon; 21.3 µM in the assay with U251 CNS. For the same compound, the values for the TGI in the assay with 786-0 renal, in the assay on MALME-3M melanoma and in the assay with NCI-H226 lung were 3.27 µM, 9.33 µM and 24.5 µM, respectively.
